Data published in article PMC11679793, “Structure-Activity Relationship Study of Majusculamide D: Overcoming Metabolic Instability and Severe Toxicity with a Fluoro Analogue” (Marine Drugs, 2024).

Experiments:
[1] = system: PANC-1 and MIA PaCa-2 pancreatic cancer cells; experiment: Transwell invasion assay; format: cell-based; conditions: 24 h, concentration-dependent, vs control
Description: Figure S225. Compound 1a inhibited the migration, invasion and proliferation of pancreatic cancer cells. (A) The results of wound healing assays to investigate the effects of 1a on the migration ability against PANC-1 and MIA PaCa-2 pancreatic cancer cells. (B) The results of transwell assays to investigate the effects of 1a on the invasion ability. (C) Effects of 1a on the clonogenic ability. (D) EdU assays of 1a. (E) Western blot assays of 1a on biomarkers. Data are presented as mean ± SD, n […]
Approximately 50% of pancreatic cancer patients show distant metastases at the time […]
disease. To evaluate the inhibitory effects of majusculamide D (1a) on the migratory capabilities of pancreatic cancer cells (PANC-1 and MIA PaCa-2), wound healing assays […]
were performed (Figure S1A). […]
concentration-dependent manner. […]
inhibited the migration of these pancreatic cancer cells. Further validation with transwell […]
concentration-dependent manner compared to the control group (Figure S1B). Since cell migration and invasion are correlated with cancer metastasis, compound 1a may delay the progression of tumors’ local spread and distant metastasis by inhibiting the migration and invasion ability of pancreatic cancer cells. […]
Images were taken at 0 hour and 24 hours after treatment to record and analyzed by measuring the area of the wound at each time point using ImageJ. […]

[2] = system: β-catenin, Claudin-1, E-cadherin, Fibronectin, Snail, TCF8/ZEB1, Vimentin in PANC-1 cells and MIA PaCa-2 cells; experiment: Western blot assay of Wnt/EMT biomarkers; format: cell-based; conditions: PANC-1 and MIA PaCa-2 cells
Description: It is well established that the metastasis of tumors was accompanied by the change of several special proteins. β-catenin is an intracellular signaling molecule primarily involved in the Wnt signaling pathway and regulates cell proliferation and differentiation. The abnormal activation of β-catenin is associated with tumor development and increased invasiveness. Claudin-1 belongs to the tight junction protein family, which maintains the barrier function between cells and is correlated with some cancers’ metastatic ability. E-cadherin is an intercellular adhesion molecule, and its decreased expression is common in the phenotype transition process of cancer cells, such as epithelial-mesenchymal transition (EMT), which is a key step in cancer metastasis. Fibronectin is an extracellular matrix protein involved in cell adhesion and migration, and its expression is often positively associated with cancer’s metastatic ability. Snail and TCF8/ZEB1 both are transcription factors that can inhibit the expression of E-cadherin and promote the EMT process. Vimentin is a marker protein of mesenchymal cells, and its expression increases during EMT, further contribute to the process of metastasis by supporting the structural changes needed for cell migration and invasion. […]
Cells were lysed in RIPA lysis buffer (Solarbio, China). The protein concentration was determined using the BCA assay. […]

Structure (SMILES): CCCCC(C)CC(C)C(=O)N(C)C(Cc1ccc(OC)cc1)C(=O)NC(C(=O)N(C)C(C(=O)N1CC(O)CC1C(=O)N1C(=O)C=CC1C)C(C)C)C(C)OC(C)=O (stereo not drawn) [Compound 1a, Majusculamide D]
- cell invasion (transwell) [1]: significantly decreased cell invasion
- expression levels of β-catenin, Fibronectin, Snail, TCF8/ZEB1 and Vimentin ([2]; increasing concentrations): decreased
- expression levels of Claudin-1 and E-cadherin ([2]; rising concentrations): increased
